Source: patent US20080045512A1, “Benzoate salt of 4-(5-methyl-oxazolo[4,5-b]-pyridin-2-yl)-1,4-diazabicyclo[3.2.2]nonane” (Pfizer Inc., priority 2006, published 2008)
Counter-ions that a name gives are not always drawn.

Tests used:
[1] = cited from earlier work
[2] = cited from earlier work; remark: listed apart in the source
[3] = Hygroscopicity by dynamic vapor sorption (isothermal moisture sorption analysis); format: physicochemical; details: for hygroscopicity (result in words): dynamic vapor sorption, 25° C.
Method: Hygroscopicity was assessed using a dynamic vapor sorption technique in which an accurately weighed sample is subjected to progressively changing water vapor pressure while simultaneously recording the weight change. The experiment is conducted isothermally at 25° C.
For 4-(5-methyloxazolo[4,5-b]pyridin-2-yl)-1,4-diazabicyclo[3.2.2]nonane benzoate Form A, less than 0.1% increase in weight was detected at 90±2% relative humidity during an isothermal (24.9±0.1° C.) moisture sorption analysis conducted from approximately 1% to 90% (±2%) humidity. Considering standard deviation, it is considered that increase in weight is less than 0.2%.

[4] = Comparison of salts of Formula I: physical properties tested and observed; format: physicochemical
Method: Physical properties of various salts of Formula I were tested and observed.

O=C1Cc2cc(CCN3CCN(c4nsc5ccccc45)CC3)c(Cl)cc2N1 [Ziprasidone, 5-[2-[4-(1,2-benzisothiazol-3-yl)piperazin-1-yl]ethyl]-6-chloroindolin-2-one]
half-life ([1]; in vivo): 6 to 7 h | Oral bioavailability ([1]; taken with food): approximately 60% | protein binding [2]: extensive

Cc1ccc2oc(N3CCN4CCC3CC4)nc2n1 [benzoate salt of Formula I, 4-(5-methyloxazolo[4,5-b]pyridin-2-yl)-1,4-diazabicyclo[3.2.2]nonane benzoate]
increase in weight in moisture sorption analysis ([3]; at 90±2% relative humidity, isothermal 24.9±0.1° C., from approximately 1% to 90% (±2%) humidity): less than 0.1% | hygroscopicity (result in words) [3]: relatively non-hygroscopic | hygroscopicity (result in words) ([3]; listed as 4-(5-methyloxazolo[4,5-b]pyridin-2-yl)-1,4-diazabicyclo[3.2.2]nonane benzoate Fo): non-hygroscopic

L-lactate
hygroscopicity (result in words) [4]: undesirable hygroscopicity

fumarate
hygroscopicity (result in words) [4]: undesirable hygroscopicity
